Results on one molecule are retold here after ChEMBL document CHEMBL2321853, “Novel acylethanolamide derivatives that modulate body weight through enhancement of hypothalamic pro-opiomelanocortin (POMC) and/or decreased neuropeptide Y (NPY)” (J Med Chem, 2013).

The test system of data set [1] is Mus musculus. Briefly: Antiobesity activity in C57BL/6 mouse assessed as change in glucose level in blood at 5 mg/kg, ip administered on day 1, 4, 5, 7, 17, 15, 19 measured on day 9 relative to control. The class given is functional. Conditions: route intraperitoneal.
In data set [2] the test system is Mus musculus. The data set is described as follows: Toxicity in Sabra mouse assessed as morphological changes in neuronal cells at 1 mg/kg, ip administered on day 8, 9, 10, 11, 14, 18, 24 and 32 by hematoxylin and eosin staining-based histopathological analysis. The arrangement: dose 1 mg/kg, route intraperitoneal. Format: organism-based. Conditions: in vivo.
For data set [3], the target named is T1, Peroxisome proliferator-activated receptor alpha (Homo sapiens) (UniProt Q07869).
T1 sequence (whole entry): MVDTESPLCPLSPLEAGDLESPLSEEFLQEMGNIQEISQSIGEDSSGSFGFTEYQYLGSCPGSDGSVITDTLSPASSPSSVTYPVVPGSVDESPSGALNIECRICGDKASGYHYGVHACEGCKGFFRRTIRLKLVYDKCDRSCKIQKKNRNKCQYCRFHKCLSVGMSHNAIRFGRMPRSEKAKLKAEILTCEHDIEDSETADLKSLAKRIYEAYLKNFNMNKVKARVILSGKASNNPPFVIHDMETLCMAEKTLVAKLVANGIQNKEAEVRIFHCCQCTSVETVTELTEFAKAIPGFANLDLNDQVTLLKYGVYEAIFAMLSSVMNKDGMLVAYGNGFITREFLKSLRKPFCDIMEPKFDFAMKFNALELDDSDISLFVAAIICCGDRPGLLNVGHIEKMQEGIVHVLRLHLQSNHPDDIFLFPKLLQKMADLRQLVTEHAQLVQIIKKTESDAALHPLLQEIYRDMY
The data set is described as follows: Binding affinity to human recombinant PPARalpha expressed in Escherichia coli at 10 uM for 16 hrs by spectrofluorimetric analysis relative to control.

Data set [4] relates to Mus musculus. The data set is described as follows: Antiobesity activity in high fat diet fed C57BL/6 mouse assessed as reduction in body weight at 1 mg/kg, ip administered on day 3, 6, 8, 9, 10 measured on day 7 relative to control. Format: functional. More on the design: scale not given: the % may be the effect or the level left. Conditions: route intraperitoneal.
Another data set relates to Hypothalamus. The data set is described as follows: Effect on POMC gene expression in Sabra mouse hypothalamus assessed as increase in mRNA level at 10 mg/kg, ip administered on day 6 to 10 measured on day 16 by RT-PCR analysis relative to control. Format: functional. Conditions: route intraperitoneal.

The structures appear in SMILES notation.

Regarding `CCCCCCCC/C=C\CCCCCCCC(=O)N[C@H](CO)C(C)C`, the Activity in the data set with Mus musculus [1] is -11.8%; with Mus musculus [2], “Non-toxic”; in data set [3], 2%; with Mus musculus [4], -3.2%; in the data set on Hypothalamus it was 90%.
